Data reported in patent publication US20150307539A1, “USE OF SULPHATED G[…] PROMOTERS OF NEURITIC GROWTH, M[…] INHIBITING THE PROLIFERATION OF ASTROGLIA AND MICROGLIA” (CONSEJO SUPERIOR DE INVESTIGACIONES CIENTIFICAS (CSIC), priority 2012, published 2015).

Columns and labels:
[1] = tested on: Astrocytes (primary astroblasts from cerebral cortices of postnatal rats); experiment: Inhibition of astroglial cell proliferation, primary astroblasts; type: cell-based, rat; details: for IC50: Astrocytes, astroglia, rat, IC50 ± SE
Text: (§1) To study the microglial and astroglial cell proliferation two cell lines of murine microglia were used (BV-2, N13), as well as primary astroblasts isolated from cerebral cortices of postnatal rats on day zero (P0). The cells were kept in DMEM plus 10% SBF, grown and treated for testing the inhibition of cell proliferation, as published earlier by the applicants (I. Garcia-Alvarez et al., J Med Chem 50, 364 (Jan. 25, 2007)). […] It was concluded that the inhibitory activity of IG20-NBD is not affected by the presence of the fluorescent group, as its IC50 is very similar to that obtained for the uncombined glycoside IG-20, which was used as a control in these tests.

N13 microglia = experiment: Inhibition of microglial cell proliferation, N13; type: cell-based, mouse; details: for IC50: N13, microglia, mouse, IC50 ± SE
Text: as §1

[2] = tested on: oligodendrocytes and astroglia from cerebral cortices of postnatal rats P0-P1; experiment: Oligodendrocyte growth, myelin (MBP) expression and astroglia (GFAP) inhibition in cortical glial culture; type: cell-based, rat; details: 30 μM, two weeks culture
Method: To study how the compound having formula I affects the growth of oligodendrocytes, the expression of myelin and the inhibition of astroglia, cerebral cortices of postnatal rats P0-P1 were dissected and enzymatically dissociated for cell culture. After two weeks incubation the culture flasks were stirred for 12 hours. The cells in suspension were harvested, the microglia were removed, and then cultured in DMEM plus SBF 10%. It was incubated for 6 hours to facilitate cell adhesion and the IG-20 (30 μM) was added to the treated group. The cells were cultured for two weeks and the medium was replaced every three days.
In both cases the differences were very significant. It was notable that the astroglial cells were large compared with the oligodendrocytes, which could scarcely be detected in the untreated controls (arrow in 2a, b). […] GFAP, glial fibrillary acidic protein; MBP, myelin basic protein; calibration bars at 75 μm (a, c) and 25 μm (b), as shown; (***) corresponds to P<0.001.

RhoGDIα protein [3] = target: T1, RhoGDIα protein (Mus musculus, UniProt Q99PT1); experiment: Co-immunoprecipitation with anti-RhoGDIα antibody (Western blot and MS), BV-2 microglia; type: binding; details: BV-2 microglia treated with 30 μM, cytosol fraction
T1 construct: This was verified by RhoGDIα immunoprecipitation in the microglial cell line BV-2; endogenous in cells; host or cells: BV-2 microglial cell line
T1 sequence (Q99PT1 1-204): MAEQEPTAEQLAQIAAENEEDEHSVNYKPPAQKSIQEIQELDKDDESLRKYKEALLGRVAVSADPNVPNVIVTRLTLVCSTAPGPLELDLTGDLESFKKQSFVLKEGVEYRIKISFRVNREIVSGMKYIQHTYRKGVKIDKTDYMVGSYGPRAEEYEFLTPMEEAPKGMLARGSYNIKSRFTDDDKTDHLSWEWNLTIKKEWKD
Method: (§2) Primary astrocyte and microglia cells (BV-2) were treated with the glycoside IG-20 at 30 μM, lysed and subjected to cell fractionation by differential centrifugation. The soluble fraction was collected and mixed with lysis buffer (1:1). Anti-RhoGDIα antibody (15 μg) was added and it was incubated with rotation at 4° C. overnight. It was immunoprecipitated with Protein A-Sepharose (20 μl) having been previously washed with PBS and centrifuged for 3 minutes at 1100 rpm. The previous mixture was added to the Protein A-Sepharose (1:1). This mixture was incubated with rotation at 4° C. for an hour and a half, and afterwards centrifuged for 5 minutes at 2500 rpm at 4° C. After discarding the supernatant, the precipitate was washed three times with lysis buffer. The immunocomplex of the Protein A-Sepharose was eluted with five volumes of the elution buffer (0.1 M glycine, pH=2.9) and a neutralising volume of 1M tris-HCl, pH=9. The mixture was centrifuged for five minutes at 2500 rpm at 4° C. and the supernatant was collected. […]
(§3) This was verified by RhoGDIα immunoprecipitation in the microglial cell line BV-2, and also in primary astrocyte cultures. […] This was detected by MS as a peak in the mass to charge ratio of 550 (FIG. 4c, 4d), which corresponds to the synthetic glycoside. […]

[4] = tested on: neurons of spinal ganglia (SG) of rat embryos (E15); experiment: Neuritic outgrowth of spinal ganglia neurons co-cultured on aldynoglia; type: cell-based
Method: Spinal ganglia (SG) of rat embryos (E15) were dissected and incubated for 12 hours on axon growth-promoting cells (aldynoglia) to allow cellular adhesion of the neurons contained in the SG to the aldynoglia substrate. Next, different concentrations of IG-20, compound 3 produced as described in the synthesis examples, were added. […] The presence of total cells is shown by the fluorescent signal of the Hoechst-marked nuclei (FIG. 1a, 1b, 1c). The nuclei remote from the central body are aldynoglia cells or those that migrate from the SG. The neurofilament images were extracted (FIG. 1g, 1h, 1i) and measured, and the neuritic growth area was compared to the controls (FIG. 1j, 1k). […] A net increase in the neuritic growth area of 1250 μm^2 more than the control with aldynoglia cells (FIG. 1k) was produced. The average speed of neuritic outgrowth in the presence of aldynoglia, 625 μm/72 h corresponding to […], was duplicated in the presence of IG-20 (5 μM) up to 1250 μm/72 h, which corresponds to 17.36 μm/h. Calibration bars at 500 μm; (*) correspond to P<0.05 (P=0.019).

BV-2 microglia = experiment: Inhibition of microglial cell proliferation, BV-2; type: cell-based; details: mouse, IC50 ± SE
Text: as §1

RhoGDIα protein [5] = target: T2, RhoGDIα protein (Rattus norvegicus, UniProt Q5XI73); experiment: Co-immunoprecipitation with anti-RhoGDIα antibody (Western blot and MS), primary astrocytes; type: binding; details: primary astrocytes treated with 30 μM, cytosol fraction
T2 construct: This was verified by RhoGDIα immunoprecipitation in the microglial cell line BV-2, and also in primary astrocyte cultures; endogenous in cells; host or cells: primary astrocyte cultures
T2 sequence (Q5XI73 1-204): T1 sequence (Q99PT1 1-204)
Method: as §2, §3

Row | Compound | IC50 ([1]; Astrocyte) [µM] | IC50 (N13 microglia) [µM] | activity in astrocytes compared with IG-20 ([1]; 30 μM compared with 9.3 μM) | IC50 [1] [µM] | microglial inhibition compared with IG-20 (N13 microglia; microglia) | GFAP marking compared with untreated control [2] | MBP signal compared with untreated control [2] | increase of mature oligodendroglia, MBP+ [2] [%] | oligodendrocyte size relative to controls [2] | reduction of the proportion of GFAP+ cells (astroglia) [2] [%] | interaction with RhoGDIα (co-immunoprecipitation) (RhoGDIα protein [3]) | net increase in the neuritic growth area more than the control with aldynoglia cells ([4]; 5 μM, 3 days incubation) [μm^2] | neuritic outgrowth compared with control aldynoglia ([4]; 5 μM, 3 days incubation, SG/aldynoglia co-culture) | average speed of neuritic outgrowth ([4]; 5 μM, control aldynoglia 8.3 μm/h) [μm/h] | average speed of neuritic outgrowth ([4]; 5 μM, control aldynoglia 625 μm/72 h) [μm/72 h] | neuritic outgrowth at five-fold increased concentration ([4]; five-fold increase of 5 μM, 3 days incubation) | IC50 (BV-2 microglia) [µM] | interaction with RhoGDIα (co-immunoprecipitation) (RhoGDIα protein [5])
1 | CCCCCCCC/C=C\CCCCCCCCO[C@H]1O[C@H](COS(=O)(=O)O)[C@@H](O)[C@H](O)[C@H]1NC(=O)CCCCCNc1ccc([N+](=O)[O-])c2nonc12 [IG20-NBD, potash from oleyl 2-[6-(7-nitrobenzofurazan)-aminohexanamide]-6-O-(oxo-sulphonyl)-α-D-glucosaminide] | 11.4 | 7.8 | – | – | – | – | – | – | – | – | – | – | – | – | – | – | – | –
2 | CCCCCCCC/C=C\CCCCCCCCO[C@H]1O[C@H](COS(=O)(=O)[O-])[C@@H](O)[C@H](OS(=O)(=O)[O-])[C@H]1NC(=O)C(F)(F)F.[K+].[K+] [Disulphated IG-20, potash from oleyl N-trifluoroacetyl-3,6-O-di-(oxo-sulphonyl)-α-D-glucosaminide] | – | 3 ± 0.8 | reduced its activity by three | 30 | microglial inhibition was not affected | – | – | – | – | – | – | – | – | – | – | – | – | –
3 | CCCCCCCC/C=C\CCCCCCCCO[C@H]1O[C@H](COS(=O)(=O)[O-])[C@@H](O)[C@H](O)C1NC(C)=O.[K+] (stereo partly drawn) [IG-20, potash from oleyl N-acetyl-6-O-(oxo-sulphonyl)-α-D-glucosaminide] | 9.3 | 3.4 | – | – | – | dramatic reduction in GFAP marking | increase in the MBP signal | 10 | 3-4 times larger than the controls | 20 | interacts directly with the RhoGDIα protein | 1250 | profuse and significant increase in neuritic outgrowth | 17.36 | 1250 | reduced this neuritic outgrowth | 21 | interacts directly with the RhoGDIα protein
